Consider 17 molecules from US7320972B2, “4-Biarylyl-1-phenylazetidin-2-ones” (Microbia, Inc., priority 2003, dated 2008).

The subject of one test is cholesterol absorption (serum 3H-cholesterol). The experiment in a line: In Vivo Assay of Hypolipidemic Agents using the Rat Cholesterol Absorption Model. Particulars: peroral, 0.1 mg/kg (footnote 5), serum 3H-cholesterol vs vehicle control. More on the design: species or system Sprague-Dawley rats. As to the method:
In Vivo Assay of Hypolipidemic Agents using the Rat Cholesterol Absorption Model. This model is based on models described by Burnett et al (2002), Bioorg. Med. Chem. Lett. 2002 Feb. 11;12(3):315-8 and J. Lipid Res. 1999 October;40(10):1747-57. Female Sprague-Dawley rats weighing 150-250 g are separated into groups of […] and fasted overnight. The animals (4-6/group) are dosed perorally with 300 μL test compounds in olive oil or suitable vehicle. Thirty minutes later, 3-5 microCuries ^3H-cholesterol per rat are delivered perorally in 300 μL olive oil. After three hours, 200 μL serum is collected, vortexed with scintillation fluid, and measured for radioactivity in a scintillation counter. Percent inhibition is defined as 100*(1−Ctest/Cctrl), where Ctest and Cctl refer to ^3H levels in serum for the test compound and for the vehicle only control, respectively. Percent inhibition values are reported for a fixed dose. The ED50 is the dose at which the half-maximal effect on serum ^3H levels is observed for a given test compound.
Representative compounds of the invention were tested in the Rat Cholesterol Absorption model above.
On to `O=C1[C@H](CC[C@H](O)c2ccc(F)cc2)[C@@H](c2ccc(-c3cccc([C@@H]4O[C@H](CO)[C@@H](O)[C@H](O)[C@H]4O)c3)cc2O)N1c1ccccc1` [Example 65, (1S)-1,5-Anhydro-1-(4′-{(2S,3R)-3-[(3S)-3-(4-fluorophenyl)-3-hydroxypropyl]-4-oxo-1-phenylazetidin-2-yl}-3′-hydroxybiphenyl-3-yl)-D-glucitol], for which the “% inhibition at 0.1 mg/kg” value is reported as 60^5%.

Staying with this test, now noted: peroral, 0.3 mg/kg (footnote 6), serum 3H-cholesterol vs vehicle control.
As for `O=C1[C@H](CC[C@H](O)c2ccc(F)cc2)[C@@H](c2ccc(-c3ccc([C@@H]4O[C@H](CO)[C@@H](O)[C@H](O)[C@H]4O)cc3)cc2O)N1c1ccccc1` [Example 66, (1S)-1,5-Anhydro-1-(4′-{(2S,3R)-3-[(3S)-3-(4-fluorophenyl)-3-hydroxypropyl]-4-oxo-1-phenylazetidin-2-yl}-3′-hydroxybiphenyl-4-yl)-D-glucitol], the “% inhibition at 0.3 mg/kg” value is reported as 71^6%.
For the molecule `O=C1[C@H](CC[C@H](O)c2ccc(F)cc2)[C@@H](c2ccc(-c3cccc([C@@H](O)[C@H]4OC(O)[C@H](O)[C@@H](O)[C@@H]4O)c3)cc2)N1c1ccccc1` (stereo partly drawn) [Example 72, (6R)-6-C-(4′-{(2S,3R)-3-[(3S)-3-(4-Fluorophenyl)-3-hydroxypropyl]-4-oxo-1-phenylazetidin-2-yl}biphenyl-3-yl)-D-glucopyranose], the “% inhibition at 0.3 mg/kg” value is recorded as 27^6%.

The same test, now with this note: po, peroral, 1 mg/kg, serum 3H-cholesterol 3 h after cholesterol dose, vs vehicle control.
A word on the inhibition in vivo: it is the drop in the measured response relative to a control, in per cent. Low readings indicate little suppression, high ones strong suppression. `O=C1[C@H](CC[C@H](O)c2ccc(F)cc2)[C@@H](c2ccc(-c3cccc([C@@H]4O[C@H](CO)[C@@H](O)[C@H](O)[C@H]4O)c3)cc2)N1c1ccccc1` [Example 64, (1S)-1,5-Anhydro-1-(4′-{(2S,3R)-3-[(3S)-3-(4-fluorophenyl)-3-hydroxypropyl]-4-oxo-1-phenylazetidin-2-yl}biphenyl-3-yl)-D-glucitol]: 1 mg/kg produced 67% inhibition in vivo.
Take `O=C1[C@H](CC[C@H](O)c2ccc(F)cc2)[C@@H](c2ccc(-c3cccc([C@H](O)[C@H]4OC(O)[C@H](O)[C@@H](O)[C@@H]4O)c3)cc2)N1c1ccccc1` (stereo partly drawn) [Example 71, (6S)-6-C-(4′-{(2S,3R)-3-[(3S)-3-(4-Fluorophenyl)-3-hydroxypropyl]-4-oxo-1-phenylazetidin-2-yl}biphenyl-3-yl)-D-glucopyranose]: at 1 mg/kg the inhibition in vivo was 65%.
As for `O=C1[C@H](CC[C@H](O)c2ccc(F)cc2)[C@@H](c2ccc(-c3cccc([C@H](O)[C@H]4OC(O)[C@H](O)[C@@H](O)[C@@H]4O)c3)cc2O)N1c1ccccc1` (stereo partly drawn) [Example 73, (6S)-6-C-(4′-{(2S,3R)-3-[(3S)-3-(4-Fluorophenyl)-3-hydroxypropyl]-4-oxo-1-phenylazetidin-2-yl}-3′-hydroxybiphenyl-3-yl)-D-glucopyranose], 1 mg/kg produced 59% inhibition in vivo.
On the same count and under the same terms, the value for `O=C1[C@H](CC[C@H](O)c2ccc(F)cc2)[C@@H](c2ccc(-c3cccc([C@@H](O)[C@H]4OC(O)[C@H](O)[C@@H](O)[C@@H]4O)c3)cc2O)N1c1ccccc1` (stereo partly drawn) [Example 74, (6R)-6-C-(4′-{(2S,3R)-3-[(3S)-3-(4-Fluorophenyl)-3-hydroxypropyl]-4-oxo-1-phenylazetidin-2-yl}-3′-hydroxybiphenyl-3-yl)-D-glucopyranose] was 67%; that for `O=C1[C@H](CC[C@H](O)c2ccc(F)cc2)[C@@H](c2ccc(-c3cccc([C@H](O)[C@@H](O)[C@@H](O)[C@H](O)[C@@H](O)CO)c3)cc2O)N1c1ccccc1` [Example 75, (6S)-6-C-(4′-{(2S,3R)-3-[(3S)-3-(4-Fluorophenyl)-3-hydroxypropyl]-4-oxo-1-phenylazetidin-2-yl}-3′-hydroxybiphenyl-3-yl)-D-glucitol] was 68%.
For the molecule `O=C1[C@H](CC[C@H](O)c2ccc(F)cc2)[C@@H](c2ccc(-c3cccc(OC[C@H]4OC(O)[C@H](O)[C@@H](O)[C@@H]4O)c3)cc2)N1c1ccc(F)cc1` (stereo partly drawn) [Example 76, 6-O-(4′-{(2S,3R)-1-(4-Fluorophenyl)-3-[(3S)-3-(4-fluorophenyl)-3-hydroxypropyl]-4-oxoazetidin-2-yl}biphenyl-3-yl)-D-glucopyranose], 1 mg/kg produced 56% inhibition in vivo.
On to `CO[C@H]1O[C@H](COc2cccc(-c3ccc([C@@H]4[C@@H](CC[C@H](O)c5ccc(F)cc5)C(=O)N4c4ccc(F)cc4)cc3)c2)[C@@H](O)[C@H](O)[C@H]1O` [Example 77, Methyl 6-O-(4′-{(2S,3R)-1-(4-fluorophenyl)-3-[(3S)-3-(4-fluorophenyl)-3-hydroxypropyl]-4-oxoazetidin-2-yl}biphenyl-3-yl)-α-D-glucopyranoside], for which the inhibition in vivo at 1 mg/kg was 70%.
Molecule `O=C1[C@H](CC[C@H](O)c2ccc(F)cc2)[C@@H](c2ccc(-c3cccc(OC[C@@H](O)[C@@H](O)[C@H](O)[C@@H](O)CO)c3)cc2)N1c1ccc(F)cc1` [Example 78, 6-O-(4′-{(2S,3R)-1-(4-Fluorophenyl)-3-[(3S)-3-(4-fluorophenyl)-3-hydroxypropyl]-4-oxoazetidin-2-yl}biphenyl-3-yl)-D-glucitol] came in with an inhibition in vivo at 1 mg/kg of 51%.
In the case of `COc1ccc(-c2ccc([C@@H]3[C@@H](CC[C@H](O)c4ccc(F)cc4)C(=O)N3c3ccc(F)cc3)cc2)cc1OC` [Example 81, (3R,4S)-4-(3′,4′-dimethoxybiphenyl-4-yl)-1-(4-fluorophenyl)-3-[(3S)-3-(4-fluorophenyl)-3-hydroxypropyl]azetidin-2-one], 1 mg/kg produced 17% inhibition in vivo.
The same measure, in the same setting: as for `CSc1cccc(-c2ccc([C@@H]3[C@@H](CC[C@H](O)c4ccc(F)cc4)C(=O)N3c3ccc(F)cc3)cc2)c1` [Example 82, (3R,4S)-1-(4-fluorophenyl)-3-[(3S)-3-(4-fluorophenyl)-3-hydroxypropyl]-4-[3′-(methylthio)biphenyl-4-yl]azetidin-2-one], the figure is 28%; as for `CN(C)c1cccc(-c2ccc([C@@H]3[C@@H](CC[C@H](O)c4ccc(F)cc4)C(=O)N3c3ccc(F)cc3)cc2)c1` [Example 83, (3R,4S)-4-[3′-(dimethylamino)biphenyl-4-yl]-1-(4-fluorophenyl)-3-[(3S)-3-(4-fluorophenyl)-3-hydroxypropyl]azetidin-2-one], 38%.
`C=Cc1ccc(-c2ccc([C@@H]3[C@@H](CC[C@H](O)c4ccc(F)cc4)C(=O)N3c3ccc(F)cc3)cc2)cc1` [Example 84, (3R,4S)-1-(4-fluorophenyl)-3-[(3S)-3-(4-fluorophenyl)-3-hydroxypropyl]-4-(4′-vinylbiphenyl-4-yl)azetidin-2-one] displayed an inhibition in vivo at 1 mg/kg of 51%.
Consider `COc1ccc(C=O)c(-c2ccc([C@@H]3[C@@H](CC[C@H](O)c4ccc(F)cc4)C(=O)N3c3ccc(F)cc3)cc2)c1` [Example 85, 4′-{(2S,3R)-1-(4-fluorophenyl)-3-[(3S)-3-(4-fluorophenyl)-3-hydroxypropyl]-4-oxoazetidin-2-yl}-5-methoxybiphenyl-2-carbaldehyde], for which testing at 1 mg/kg gave an inhibition in vivo of 15%.
Regarding `Nc1cccc(-c2ccc([C@@H]3[C@@H](CC[C@H](O)c4ccc(F)cc4)C(=O)N3c3ccc(F)cc3)cc2)c1` [Example 86, (3R,4S)-4-(3′-aminobiphenyl-4-yl)-1-(4-fluorophenyl)-3-[(3S)-3-(4-fluorophenyl)-3-hydroxypropyl]azetidin-2-one], the inhibition in vivo at 1 mg/kg is 35%.
